According to patent US20140005163A1 (NOVARTIS AG, priority 2010, published 2014):

How the values were obtained:
PI3K beta = molecular target: T1, PI3K beta (Homo sapiens, UniProt P42338); test: PI3K beta kinase assay (Kinase-Glo luminescence); assay type: biochemical
T1 construct: for the full-length p110-b subunit are generated and fused by overlapping PCR; p85(iSH2) fusion partner (see partner chain) (N); His tag (C); made in house; host or cells: baculovirus; Tn5 (Trichoplusia ni) or TiniPro insect cells
Summary of the method: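 Enzyme: BV949 p85(iSH2)-Gly linker-p110β FL-His, 25 nM. Substrate: PI 10 μg/mL. ATP: 1 μM, added to start. Buffer: Tris pH 7.5 10 mM, MgCl2 3 mM, NaCl 50 mM, CHAPS 0.05%, DTT 1 mM. RT, 60 min. Readout: Kinase-Glo. IC50 by 4-parameter fit.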

mTOR = molecular target: T2, mTOR (Homo sapiens, UniProt P42345); test: Biochemical assay for m-TOR by TR-FRET; details: 8 μM ATP, 400 nM GFP-4EBP1, 0.5 nM mTOR
T2 construct: purchased Invitrogen Corporation (Carlsbad/CA, USA) PV4753
Summary of the method: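 Steps: ATP (8 μM final) plus GFP-4EBP1 (400 nM final) combined with mTOR (0.5 nM final), incubated at rt; buffer HEPES pH 7.5 with 10 mM MnCl2, NaCl, EGTA, DTT. Then stopped with EDTA/Tb3+-anti-p4EBP1 pT46 Ab (0.5 nM). Plates read after 15 min.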

[1] = test system: PKB Ser473 phosphorylation in Rat1-myr-HA-p110 delta cells; test: Reverse protein array assay, PKB Ser473 phosphorylation in Rat1-myr-p110 delta cells; assay type: cell-based; details: read-out: p-PKB IC50
Summary of the method: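 Measured: PKB Ser473 phosphorylation by reverse protein array in Rat1 cells expressing myr-HA-p110 alpha, beta or delta, after 30 min compound treatment at 37 °C with 0.2% DMSO vehicle.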

T2 sequence (P42345 1360-2549 limits assumed): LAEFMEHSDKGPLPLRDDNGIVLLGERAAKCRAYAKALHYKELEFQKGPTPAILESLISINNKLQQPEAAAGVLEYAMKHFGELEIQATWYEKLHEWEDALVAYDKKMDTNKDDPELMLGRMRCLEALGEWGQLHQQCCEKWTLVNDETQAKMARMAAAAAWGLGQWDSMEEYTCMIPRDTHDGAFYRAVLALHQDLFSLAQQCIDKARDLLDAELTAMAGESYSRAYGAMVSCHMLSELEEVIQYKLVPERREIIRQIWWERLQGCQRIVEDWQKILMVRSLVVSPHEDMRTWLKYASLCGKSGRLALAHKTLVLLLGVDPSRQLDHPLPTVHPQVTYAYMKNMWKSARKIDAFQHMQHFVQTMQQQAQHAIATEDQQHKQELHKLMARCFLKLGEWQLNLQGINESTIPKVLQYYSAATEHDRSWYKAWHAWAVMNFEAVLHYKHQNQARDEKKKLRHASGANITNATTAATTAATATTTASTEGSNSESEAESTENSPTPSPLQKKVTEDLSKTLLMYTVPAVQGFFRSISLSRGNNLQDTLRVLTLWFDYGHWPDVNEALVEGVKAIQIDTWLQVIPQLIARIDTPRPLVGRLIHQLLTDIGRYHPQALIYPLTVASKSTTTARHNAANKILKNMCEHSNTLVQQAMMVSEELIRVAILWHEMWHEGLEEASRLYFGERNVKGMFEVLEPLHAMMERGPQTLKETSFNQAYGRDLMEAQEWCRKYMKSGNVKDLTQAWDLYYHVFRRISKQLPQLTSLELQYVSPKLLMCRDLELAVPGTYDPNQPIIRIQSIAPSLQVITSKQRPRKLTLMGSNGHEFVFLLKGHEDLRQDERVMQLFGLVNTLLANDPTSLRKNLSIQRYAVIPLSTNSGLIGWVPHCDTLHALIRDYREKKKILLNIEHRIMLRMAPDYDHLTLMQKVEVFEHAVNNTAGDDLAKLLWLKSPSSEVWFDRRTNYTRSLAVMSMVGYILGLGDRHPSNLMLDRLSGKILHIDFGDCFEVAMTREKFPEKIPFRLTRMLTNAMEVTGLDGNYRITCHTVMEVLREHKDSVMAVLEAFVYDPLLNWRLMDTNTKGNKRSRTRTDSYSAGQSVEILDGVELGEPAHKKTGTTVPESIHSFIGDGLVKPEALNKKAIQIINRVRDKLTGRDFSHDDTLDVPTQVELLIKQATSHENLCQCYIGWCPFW
T1 sequence (P42338 with tags, fused parts or gaps limits assumed): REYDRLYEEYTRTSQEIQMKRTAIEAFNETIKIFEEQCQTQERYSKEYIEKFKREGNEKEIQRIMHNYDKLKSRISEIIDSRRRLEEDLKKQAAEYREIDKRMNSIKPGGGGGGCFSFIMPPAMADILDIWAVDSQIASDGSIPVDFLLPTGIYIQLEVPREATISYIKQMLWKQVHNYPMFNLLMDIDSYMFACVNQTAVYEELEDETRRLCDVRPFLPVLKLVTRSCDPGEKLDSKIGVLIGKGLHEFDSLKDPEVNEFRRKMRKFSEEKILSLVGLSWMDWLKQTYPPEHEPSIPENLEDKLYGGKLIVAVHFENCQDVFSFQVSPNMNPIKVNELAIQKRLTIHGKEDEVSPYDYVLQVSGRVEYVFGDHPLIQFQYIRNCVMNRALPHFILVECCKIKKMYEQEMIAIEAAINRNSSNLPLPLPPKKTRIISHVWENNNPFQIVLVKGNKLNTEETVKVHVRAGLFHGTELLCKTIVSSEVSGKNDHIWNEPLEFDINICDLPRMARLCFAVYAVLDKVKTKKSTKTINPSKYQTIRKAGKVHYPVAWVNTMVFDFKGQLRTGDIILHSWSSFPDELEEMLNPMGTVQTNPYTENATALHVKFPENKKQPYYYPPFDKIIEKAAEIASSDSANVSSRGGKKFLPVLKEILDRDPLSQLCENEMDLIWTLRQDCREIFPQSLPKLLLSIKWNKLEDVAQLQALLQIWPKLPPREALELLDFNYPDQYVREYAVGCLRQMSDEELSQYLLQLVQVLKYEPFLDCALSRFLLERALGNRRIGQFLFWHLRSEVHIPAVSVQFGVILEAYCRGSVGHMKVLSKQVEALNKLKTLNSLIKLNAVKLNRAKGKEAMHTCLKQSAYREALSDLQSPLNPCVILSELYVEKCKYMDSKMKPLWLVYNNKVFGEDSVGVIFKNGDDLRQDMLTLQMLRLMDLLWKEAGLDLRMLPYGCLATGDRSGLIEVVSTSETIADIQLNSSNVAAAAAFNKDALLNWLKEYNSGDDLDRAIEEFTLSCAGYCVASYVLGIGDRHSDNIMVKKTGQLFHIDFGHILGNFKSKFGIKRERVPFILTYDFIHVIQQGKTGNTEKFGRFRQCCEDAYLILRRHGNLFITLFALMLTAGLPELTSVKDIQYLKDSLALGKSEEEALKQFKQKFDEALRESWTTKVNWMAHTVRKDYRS

IC50 (PI3K beta) [nM] | IC50 (mTOR) [nM] | IC50 [1] [nM] | Structure (SMILES)
477 | 329 | 749 | CCOc1cc(-c2ccc3ncc4c(c3c2)n(-c2c(C)nn(CC(=O)N(C)C)c2C)c(=O)n4C)cnc1C [Example 85.3, 2-{4-[8-(5-Ethoxy-6-methyl-pyridin-3-yl)-3-methyl-2-oxo-2,3-dihydro-imidazo[4,5-c]quinolin-1-yl]-3,5-dimethyl-pyrazol-1-yl}-N,N-dimethyl-acetamide]
22 | < 3 | < 5 | CCNc1cc(-c2ccc3ncc4c(c3c2)n(-c2cn(C)nc2Cl)c(=O)n4C)cnc1C [Example 87.2, 1-(3-Chloro-1-methyl-1H-pyrazol-4-yl)-8-(5-ethylamino-6-methyl-pyridin-3-yl)-3-methyl-1,3-dihydro-imidazo[4,5-c]quinolin-2-one]
12 | < 3 | 7 | CCNc1cc(-c2ccc3ncc4c(c3c2)n(-c2cn(CC)nc2C)c(=O)n4C)cnc1C [Example 87.3, 8-(5-Ethylamino-6-methyl-pyridin-3-yl)-1-(1-ethyl-3-methyl-1H-pyrazol-4-yl)-3-methyl-1,3-dihydro-imidazo[4,5-c]quinolin-2-one]
407 | 20 | 42 | CCN(C)c1ccc(-c2ccc3ncc4c(c3c2)n(-c2cn(C)nc2C)c(=O)n4C)cn1 [Example 98.1, 1-(1,3-Dimethyl-1H-pyrazol-4-yl)-8-[6-(ethyl-methyl-amino)-pyridin-3-yl]-3-methyl-1,3-dihydro-imidazo[4,5-c]quinolin-2-one]
61 | 51 | 91 | CNC(=O)c1cc(-c2ccc3ncc4c(c3c2)n(-c2cn(C)nc2C)c(=O)n4C)cnc1OC [Example 125.1, 5-[1-(1,3-Dimethyl-1H-pyrazol-4-yl)-3-methyl-2-oxo-2,3-dihydro-1H-imidazo[4,5-c]quinolin-8-yl]-2-methoxy-N-methyl-nicotinamide]
407 | 27 | 35 | CNc1ncc(-c2ccc3ncc4c(c3c2)n(-c2cn(C(C)C)nc2C)c(=O)n4C)cc1F [Example 141.3, 8-(5-Fluoro-6-methylamino-pyridin-3-yl)-1-(1-isopropyl-3-methyl-1H-pyrazol-4-yl)-3-methyl-1,3-dihydro-imidazo[4,5-c]quinolin-2-one]

Further lines, the compound ahead of its results:

Structure (SMILES) | IC50 (PI3K beta) [nM] | IC50 (mTOR) [nM] | IC50 [1] [nM]
CCOc1cncc(-c2ccc3ncc4c(c3c2)n(-c2cn(CC(=O)N(C)C)nc2C)c(=O)n4C)c1 [Example 56.2, 2-{4-[8-(5-Ethoxy-pyridin-3-yl)-3-methyl-2-oxo-2,3-dihydro-imidazo[4,5-c]quinolin-1-yl]-3-methyl-pyrazol-1-yl}-N,N-dimethyl-acetamide] | 317 | 52 | 468
Cc1cnn(C)c1-n1c(=O)n(C)c2cnc3ccc(-c4cncc(OC(C)C)c4)cc3c21 [Example 58.3, 1-(2,4-Dimethyl-2H-pyrazol-3-yl)-8-(5-isopropoxy-pyridin-3-yl)-3-methyl-1,3-dihydro-imidazo[4,5-c]quinolin-2-one] | 203 | 566 | 577
COCCOc1cncc(-c2ccc3ncc4c(c3c2)n(-c2cn(C)nc2Cl)c(=O)n4C)c1 [Example 59.2, 1-(3-Chloro-1-methyl-1H-pyrazol-4-yl)-8-[5-(2-methoxy-ethoxy)-pyridin-3-yl]-3-methyl-1,3-dihydro-imidazo[4,5-c]quinolin-2-one] | 19 | 26 | 69
CCOc1ncc(-c2ccc3ncc4c(c3c2)n(-c2cn(C)nc2C)c(=O)n4C)cc1N(C)C(C)=O [Example 63, N-{5-[1-(1,3-Dimethyl-1H-pyrazol-4-yl)-3-methyl-2-oxo-2,3-dihydro-1H-imidazo[4,5-c]quinolin-8-yl]-2-ethoxy-pyridin-3-yl}-N-methyl-acetamide] | 110 | 306 | 356
Cc1ncc(-c2ccc3ncc4c(c3c2)n(-c2cn(C)nc2C)c(=O)n4C)cc1NS(C)(=O)=O [Example 76, N-{5-[1-(1,3-Dimethyl-1H-pyrazol-4-yl)-3-methyl-2-oxo-2,3-dihydro-1H-imidazo[4,5-c]quinolin-8-yl]-2-methyl-pyridin-3-yl}-methanesulfonamide] | 10 | 5 | 390
COc1ncc(-c2ccc3ncc4c(c3c2)n(-c2cn(C)nc2Cl)c(=O)n4C)cc1N [Example 89, 8-(5-Amino-6-methoxy-pyridin-3-yl)-1-(3-chloro-1-methyl-1H-pyrazol-4-yl)-3-methyl-1,3-dihydro-imidazo[4,5-c]quinolin-2-one] | 23 | 3 | 7
COC(=O)c1ccc(-c2ccc3ncc4c(c3c2)n(-c2cn(C)nc2C)c(=O)n4C)cn1 [Example 100, 5-[1-(1,3-Dimethyl-1H-pyrazol-4-yl)-3-methyl-2-oxo-2,3-dihydro-1H-imidazo[4,5-c]quinolin-8-yl]-pyridine-2-carboxylic acid methyl ester] | 140 | 6 | 43
COCc1ccc(-c2ccc3ncc4c(c3c2)n(-c2cn(C(C)C)nc2C)c(=O)n4C)cn1 [Example 105, 1-(1-Isopropyl-3-methyl-1H-pyrazol-4-yl)-8-(6-methoxymethyl-pyridin-3-yl)-3-methyl-1,3-dihydro-imidazo[4,5-c]quinolin-2-one] | 163 | 95 | 162
COc1ccc(-c2ccc3ncc4[nH]c(=O)n(-c5cn(C)nc5C)c4c3c2)cn1 [Example 109, 1-(1,3-Dimethyl-1H-pyrazol-4-yl)-8-(6-methoxy-pyridin-3-yl)-1,3-dihydro-imidazo[4,5-c]quinolin-2-one] | 38 | 11 | 120
Cc1nn(C)cc1-n1c(=O)n(C)c2cnc3ccc(-c4cnc5c(ccn5C)c4)cc3c21 [Example 116, 1-(1,3-Dimethyl-1H-pyrazol-4-yl)-3-methyl-8-(1-methyl-1H-pyrrolo[2,3-b]pyridin-5-yl)-1,3-dihydro-imidazo[4,5-c]quinolin-2-one] | 206 | 15 | 34
Cc1nn(C)cc1-n1c(=O)n(C)c2cnc3ccc(-c4ccc(N5CCNCC5)nc4)cc3c21 [Example 126, 1-(1,3-Dimethyl-1H-pyrazol-4-yl)-3-methyl-8-(6-piperazin-1-yl-pyridin-3-yl)-1,3-dihydro-imidazo[4,5-c]quinolin-2-one] | 802 | 97 | 266
COc1ncc(-c2ccc3ncc4c(c3c2)n(-c2cn(C)nc2C)c(=O)n4C)cc1N [Example 127, 8-(5-Amino-6-methoxy-pyridin-3-yl)-1-(1,3-dimethyl-1H-pyrazol-4-yl)-3-methyl-1,3-dihydro-imidazo[4,5-c]quinolin-2-one] | 44 | 5 | 18
Cc1nn(C)cc1-n1c(=O)n(C)c2cnc3ccc(-c4cnc5ccn(C)c5c4)cc3c21 [Example 129, 1-(1,3-Dimethyl-1H-pyrazol-4-yl)-3-methyl-8-(1-methyl-1H-pyrrolo[3,2-b]pyridin-6-yl)-1,3-dihydro-imidazo[4,5-c]quinolin-2-one] | 34 | 5 | 46
